The subject of assay [1] is MN4 (DNA, aptamer) GGCGACAAGGAAAATCCTTCAACGAAGTGGGTCGCC
Nature of the assay: quinine fluorescence quenching. As to conditions: PBS, 5 mM MgCl2; pH 7.4, 20 °C; 0.1 μM quinine; three-parameter fit; per site.

The subject of assay [2] is A (boxcar A) (DNA, aptamer) CGTCTAATCTAATCAGGCGACAAGGAAAATCCTTCAACGAAGTGGGTCGCCCTAACTCTCTATCCG
Description: quinine fluorescence quenching. As to conditions: PBS, 5 mM MgCl2; pH 7.4, 20 °C; 0.1 μM quinine; three-parameter fit; per site.

As for `C=C[C@H]1CN2CC[C@H]1C[C@H]2[C@H](O)c1ccnc2ccc(OC)cc12`, the figures for the KD in assay [1] and in assay [2] were 280 ± 60 nM and 380 ± 130 nM, respectively.

The values above are taken from PMC9969250 (2023).
